Assay results reported in publication PMC11508334, “In Vitro Evaluation of New 5-Nitroindazolin-3-one Derivatives as Promising Agents against Trypanosoma cruzi” (International Journal of Molecular Sciences, 2024).

What was measured:
[1] = Cyclic voltammetry, reduction of nitro group; type: physicochemical
Procedure: Cyclic Voltammetry (CV) was carried out using a Metrohm Autolab instrument model PGSTAT204, using dimethyl sulfoxide (DMSO) as the solvent (1 mM solutions), tetrabutylammonium perchlorate (0.1 M TBAP) as the supporting electrolyte, a hanging drop mercury electrode (HDME) as the working electrode, Ag/AgCl (3M KCl) as the reference electrode, and a graphite rod as the counter electrode. All measurements were performed after bubbling with nitrogen (N2) for 10 min.
Using Nicholson’s procedure, the Ipa/Ipc values (RNO2/RNO2^•−) were measured from each cyclic voltammogram with a scan rate between 0.1 and 2.5 V/s.

[2] = test system: RAW 264.7 cells; assay: Cytotoxicity MTT assay on RAW 264.7 cells; type: cell-based; conditions: in vitro cytotoxicity, murine RAW 264.7 macrophages
Procedure: The compounds under study, dissolved in dimethylsulfoxide (DMSO), were added to the culture media at 10–200 μM. RAW 264.7 cells were cultured in 96-well plates (5 × 10^4 cells per well), and 100 μL of 0.5 mg/mL MTT was added to each well. The DMSO final concentration was less than 0.1% v/v. After incubation for 4 h at 37 °C, the generated water-insoluble formazan dye was dissolved by adding 100 μL of 10% w/v sodium dodecyl sulfate (SDS) in 0.01 M HCl. The plates were further incubated overnight at 37 °C; […] 0.5% of Triton X-100 was added as a positive control. The plates were further incubated overnight at 37 °C, and the optical density of the wells was determined using a microplate reader (Asys Expert Plus©, Asys Hitachi, Vienna, Austria) at 570 nm. Under these conditions, the optical density is directly proportional to the viable cell number in each well. All experiments were performed at least thrice and data were reported as means and their standard deviations from triplicate cultures. Results are reported as IC50 regarding the control (uninfected cells in culture medium)

[3] = test system: T. cruzi epimastigote stage (Dm28c strain); assay: Epimastigotes viability study (MTT); type: cell-based, Trypanosoma cruzi
Procedure: The trypanocidal activity was evaluated against the T. cruzi epimastigote stage (Dm28c strain). It was measured through the MTT assay using 0.22 mg/mL phenazine methosulfate (as an electron carrier). T. cruzi epimastigote from the author's collection (Programa de Farmacología Molecular y Clínica, Facultad de Medicina, Universidad de Chile, Santiago, Chile) were grown at 28 °C in liver infusion tryptase (LIT) medium, as reported earlier, but replacing blood with 4 μM hemin. […] fetal bovine serum (FBS) was added to a final concentration of 10% v/v. In this colorimetric assay for testing the trypanocidal activity, the compounds were dissolved in DMSO. They were added to 3 × 10^6 parasites/mL at 100 μM final concentrations in RPMI 1640 culture medium without phenol red for 24 h at 28 °C. The final concentration of DMSO was less than 0.1% v/v. […] The MTT assay, which was described previously, determined the viability of the epimastigotes.

[4] = test system: Dm28c trypomastigotes; assay: Trypomastigote viability study (MTT); type: cell-based, Trypanosoma cruzi
Procedure: Vero cells (ATCC CCL-81) were infected with Dm28c trypomastigotes at a 1:3 (cell: parasite) ratio. T. cruzi trypomastigotes were initially obtained from primary cultures of peritoneal macrophage from chagasic mice. […] Vero cell cultures were then infected with trypomastigotes and incubated at 37 °C in humidified air and 5% CO2 for 5–7 days. After that time, the culture medium was collected and centrifuged at 500× g for 5 min. The trypomastigote-containing pellet was re-suspended in RPMI 1640 supplemented with inactivated FBS and penicillin–streptomycin at a final 1 × 10^7 parasites/mL density. Trypomastigote viability assays were performed using the MTT reduction method as described previously. Then, 1 × 10^7 parasites/mL was incubated in RPMI 1640 with inactivated FBS at 37 °C for 24 h with or without the studied compounds.

[5] = test system: trypomastigotes of T. cruzi; assay: Plasmatic membrane permeability assay (SYTOX Green) on trypomastigotes; type: cell-based, Trypanosoma cruzi; conditions: compound at IC50, 1 h
Procedure: Late growth-phase trypomastigotes of T. cruzi (3 × 10^6/well) were washed and incubated in the dark with 1 μM SYTOX Green probe (Molecular Probes) in HANKS′ balanced salts solution (HBSS; Sigma-Aldrich) supplemented with 10 mM D-glucose (HBSS + Glu). The test compound was added at IC50, and fluorescence was measured after 1 h of treatment. The maximum permeabilization was obtained with 0.5% Triton X-100. Fluorescence intensity was determined using Varioskan™ LUX multimode microplate reader (ThermoFisher Scientific, Waltham, MA, USA), with excitation and emission wavelengths of 485 and 520 nm, respectively. The following internal controls were used in the evaluation: (i) the background fluorescence of the compound at the respective wavelengths and (ii) the possible interference of DMSO. Samples were tested in triplicate.

[6] = test system: Dm28c trypomastigote of T. cruzi; assay: Mitochondrial membrane potential (TMRM incorporation); type: cell-based, Trypanosoma cruzi; conditions: trypomastigotes, compound at IC50, 3 h; compared to negative control
Procedure: Mitochondrial membrane potential (ψm) was determined by the incorporation of the fluorescent probe tetramethylrhodamine methyl ester (TMRM). […] Then, carbonylcyanide-m-chlorophenylhydrazone (CCCP, 10 µM) was added as a control and incubated at 37 °C in humidified air and 5% CO2 for 3 h. Parasites were washed with phosphate-buffered saline (pH 7.4), and suspensions were incubated with TMRM (50 nM) for 15 min. Fluorescence measurements determined the incorporation of the probe at an excitation wavelength of 550 nm and an emission of 590 nm. All the assays were performed in darkness.

[7] = test system: trypomastigote form of T. cruzi; assay: Analysis of ATP levels (CellTiter-Glo); type: cell-based, Trypanosoma cruzi; conditions: trypomastigotes; relative to negative control
Procedure: The CellTiter-Glo® Luminescent Cell Viability Assay (Promega, Fitchburg, WI, USA) was used to detect variations in ATP levels. After incubation, treated parasites were centrifuged (6000 rpm, 10 min, 4 °C) and treated according to the manufacturer’s instructions. Luminescence was determined using the Varioskan™ LUX multi-mode microplate reader (ThermoFisher Scientific). Results were expressed as a percentage relative to the negative control without treatment. Sodium azide (20 mM NaN3 for 3 h) was added as a positive control and benznidazole as a reference treatment. (1) %relative control=luminescence sample/luminescence control∗100

[8] = test system: Dm28c trypomastigotes; assay: Intracellular ROS generation (DCFH2-DA); type: cell-based, Trypanosoma cruzi; conditions: compound at IC50, 40 min
Procedure: ROS detection was performed using the 2′, 7′-dichlorodihydrofluorescein diacetate (DCFH2-DA) method. For Dm28c trypomastigotes, 96-well plates were seeded with 10 × 10^6 trypomastigotes/mL in RPMI medium without phenol red and supplemented with 5% SFBi. Cultures were incubated with a 20 μM DCFH2-DA solution for 15 min at 37 °C. Then, they were centrifuged at 6000 rpm and washed 2 times with phosphate-buffered saline at pH 7.4. The DCFH2-DA-loaded trypomastigotes were then transferred to a Nunc® fluorescence 96-well plate. […] The area under fluorescence increase over time curves were determined using Origin 8 software 9.2, with areas normalized to control. Results are the means ± SD of three independent experiments.

[9] = test system: trypomastigote form of T. cruzi (Dm28c strain); assay: ESR spin trapping with DMPO in parasite media; type: cell-based, Trypanosoma cruzi; conditions: trypomastigotes, NADPH, aerobic conditions
Procedure: The free radical production capacity of the new complexes was assessed in the parasite by ESR using 5,5- dimethyl-1-pirroline-N-oxide (DMPO) for spin trapping. Each tested compound was dissolved in DMSO (spectroscopy grade) (ca. 1 mM) and the solution was added to a mixture containing the trypomastigote form of T. cruzi (Dm28c strain, final protein concentration 4–8 mg/mL) and DMPO (final concentration 250 mM). The mixture was transferred to a 50 μL capillary. ESR spectra were recorded in the X band (9.85 GHz) using a Bruker ECS 106 spectrometer with a rectangular cavity and 50 KHz field modulation. All the spectra were registered in the same scale after 15 scans.

- −EpaIII ([1]; anodic peak potential of couple IIIc/IIIa, given with inverted sign, vs. Ag/AgCl electrode in DMSO): 1.32 V
- −EpcIII ([1]; cathodic peak potential of couple IIIc/IIIa, given with inverted sign, vs. Ag/AgCl electrode in DMSO): 1.36 V
- Ipa/Ipc ([1]; current ratio RNO2/RNO2•−, couple IIIc/IIIa, DMSO): 0.62
- −E1/2 ([1]; half-wave potential of couple IIIc/IIIa, given with inverted sign, vs. Ag/AgCl electrode in DMSO): 1.34 V
- IC50 ([3]; T. cruzi Dm28c epimastigotes, 24 h, MTT): 1.1 ± 0.3 µM
SMILES: O=c1c2cc([N+](=O)[O-])ccc2[nH]n1Cc1ccccn1 [Compound 5a, 5-nitro-2-picolyl-indazolin-3-one]
- IC50 [2]: 68.9 ± 0.7 µM
- SI Epimastigote ([3]; Selectivity Index IC50 macrophages RAW 264.7/IC50 epimastigotes Dm28c): 62.6
- SI Trypomastigote ([4]; Selectivity Index IC50 macrophages RAW 264.7/IC50 trypomastigotes Dm28c): 12.8
- IC50 ([4]; T. cruzi Dm28c trypomastigotes, 24 h, MTT): 5.4 ± 0.7 µM
- alteration of plasma membrane permeability (SYTOX Green incorporation) [5]: alter plasma membrane permeability
- effect on mitochondrial membrane potential (ψm) [6]: statistically significant impact
- ATP levels [7]: significantly reduced ATP levels
- intracellular ROS (DCF fluorescence intensity) [8]: most significant increase in fluorescence intensity
- radical species detected by DMPO spin trapping [9]: generation of the hydroxyl radical
